Data: US6750178B1, “Agrochemical composition” (Syngenta Limited, priority 1999, dated 2004)

Columns and labels:
Assay type in all cases: in vivo
SIDSP = assay: Glass-house ED90 of paraquat dichloride plus adjuvant, SIDSP; conditions: paraquat dichloride 15, 45, 135 and 270 g/ha paraquat ion; adjuvant 0.1% w/v; 18 days after treatment
[1] = system: Soghinm halepenise(SORHA); assay: Glass-house ED90 of glyphosate salts, SORHA; conditions: calculated dose for 90% control; rates 500-4000 glyphosate acid equivalent/ha; AL2042 0.25% w/v with all treatments; 22 days after treatment
From the text: This Example illustrates the use of salts of glyphosate acid and the adjuvants of Formula (I).
Glyphosate trimesium and the glyphosate salts of the indicated adjuvants of formula (I) were applied to Soghinm halepenise(SORHA) at 500, 1000, 2000 and 4000 glyphosate acid equivalent/ha. All treatments were made up in deionised water and applied using a tracksprayer with a 11002 nozzle at a spray application volume of 200 l/ha . All treatments were replicated 3 times. After spraying the plants were laid out in a glass-house and maintained at a temperature of 24° C. by day and 19° C. by night. A visual assessment of % control was carried out 22 days after treatment and calculated doses for 90% control (ED90) were derived. AL2042 alkylpolygylcoside was used at 0.25% w/v as additional surfactant with all treatments. It will be appreciated that a low ED90 value indicates high activity.

[2] = system: Ipomoea hederacea (IPOHE); assay: Glass-house visual % control with potassium glyphosate plus adjuvant, IPOHE; conditions: potassium glyphosate 300 g glyphosate acid equivalent/ha, AL2042 0.2% w/v, CRODAFOS T5A salts 0.2% w/v phosphate ester acid equivalent, 16 days after treatment
From the text: This Example illustrates the use of a salt of ethoxy (5 moles of EO) isotridecyl phosphate, ester in the acid form (CRODAFOS T5A) with JEFFAMINE ED600. CRODAFOS T5A is a mixture of mono and di esters. CRODAFOS is a tradename of Croda.
Potassium glyphosate, in combination with the adjuvants specified below, was applied to Ipomoea hederacea (IPOHE) at 300 g glyphosate acid equivalent/ha. All treatments were made up in deionised water and applied using a tracksprayer with a 11002 nozzle at a spray application volume of 200 l/ha. All treatments were replicated 4 times. After spraying the plants were laid out in a glass-house and maintained at a temperature of 24° C. by day and 19° C. by night. A visual assessment of % control was carried out 16 days after treatment.
The AL2042 was applied at 0.2% w/v and the CRODAFOS T5A salts were applied at 0.2% w/v phosphate ester acid equivalent. The Crodafos T5A potassium salt was prepared by neutralising the phosphate ester in its acid form with potassium hydroxide to pH6. The CRODAFOS T5A JEFFAMINE ED600 salt was prepared by neutralising the phosphate ester in its acid form with JEFFAMINE ED600 to pH6.

[3] = system: Abutilon theophrasti (ABUTH); assay: Glass-house visual % control with potassium glyphosate plus adjuvant; conditions: potassium glyphosate 500 g glyphosate acid equivalent/ha, adjuvant 0.2% w/v, 200 l/ha, 16 days after treatment, 0=unaffected, 100=complete kill
Method: Potassium glyphosate was applied at 500 g glyphosate acid equivalent/ha to Abutilon theophrasti (ABUTH) plants grown in the glass-house. All treatments were made up in deionised water and applied using a tracksprayer with a 11002 nozzle at a spray application volume of 200 l/ha . All treatments were replicated 4 times. After spraying the plants were laid out in a glass-house and maintained at a temperature of 24° C. by day and 19° C. by night. The JEFFAMINE adjuvants were used in a proportion 0.2% w/v. A visual assessment of % control, where 0=unaffected and 100=complete kill, was carried out 16 days after treatment.

C[n+]1ccc(-c2cc[n+](C)cc2)cc1 [Control — No adjuvant, Paraquat dichloride]
ED90 SIDSP (SIDSP): (>270) g paraquat ion per litre

C[S+](C)C.O=C([O-])CNCP(=O)(O)O [Glyphosate trimesium]
SORHA — ED90 [1]: 1410 gae/ha

O=C(O)CNCP(=O)([O-])O.[K+] [No adjuvant, Potassium glyphosate]
IPOHE — % control [2]: 64%
% control [3]: 37%
